Literature values in patent US20120134921A1, “SOLID COMPOSITIONS COMPRISING 5-AMINOLEVULINIC ACID” (Photocure ASA, priority 2009, published 2012).

How the values were obtained:
dysplastic lesions = settings: sterile solution administered as local probe, chronic colitis rat models
[1] = test system: pre-malignant conditions in the colon; settings: enemas, 5-ALA hexyl ester in sterile phosphate buffered saline

## CCCCCCOC(=O)CCC(=O)CN [5-ALA hexyl ester, n-hexyl aminolevulinic acid ester]
Dysplastic lesions
  Sensitivity of detection of dysplastic lesions by fluorescence: 60%
  Specificity of detection of dysplastic lesions by fluorescence: 51%
[1]
  More polyps detected by PDD than with white light endoscopic imaging: 28%
